Measured values reported in ChEMBL document CHEMBL1201862, “PubChem BioAssay data set” (2004).
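Dose response: 5 concentrations. Exposure: 48 h. Format: 96-well plates. Endpoint: linear interpolation; highest concentration if not reached. Abbreviation: GI50, concentration required for 50% inhibition of growth.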 Active and inactive are the calls of the source. Rule as the data show it: active = GI50 up to about 1.1 µM and inactive = higher.

What was measured:
Assay in all cases: NCI-60 cell line screen, 48 h
A498 = test system: A498
EKVX = test system: EKVX
HCT-116 = test system: HCT-116
HL-60 = test system: HL-60
HOP-62 = test system: HOP-62
HOP-92 = test system: HOP-92
KM12 = test system: KM12
M19-MEL = test system: M19-MEL
MOLT-4 = test system: MOLT-4
Malme-3M = test system: Malme-3M
NCI-H460 = test system: NCI-H460
OVCAR-4 = test system: OVCAR-4
RPMI-8226 = test system: RPMI-8226
SK-OV-3 = test system: SK-OV-3
UACC-257 = test system: UACC-257
UO-31 = test system: UO-31
DU-145 = test system: DU-145
Hs-578T = test system: Hs-578T
MDA-MB-231 = test system: MDA-MB-231
MDA-MB-435 = test system: MDA-MB-435

Compound | GI50 (A498) | GI50 (EKVX) | GI50 (HCT-116) | GI50 (HL-60) | GI50 (HOP-62) | GI50 (HOP-92) | GI50 (KM12) | GI50 (M19-MEL) | GI50 (MOLT-4) | GI50 (Malme-3M) | GI50 (NCI-H460) | GI50 (OVCAR-4) | GI50 (RPMI-8226) | GI50 (SK-OV-3) | GI50 (UACC-257) | GI50 (UO-31) | GI50 (DU-145) | GI50 (Hs-578T) | GI50 (MDA-MB-231) | GI50 (MDA-MB-435)
COc1ccccc1/C=C1\CCC(CNc2ccc(Cl)cc2)C1=O (stereo unspecified) | 13.8 µM (inactive) | 5.15 µM (inactive) | 4.38 µM (inactive) | 2.18 µM (inactive) | 7.76 µM (inactive) | 16.4 µM (inactive) | 1.1 µM (active) | 1.61 µM (inactive) | 2.86 µM (inactive) | 14.5 µM (inactive) | 1.43 µM (inactive) | 14.7 µM (inactive) | 1.34 µM (inactive) | 1.73 µM (inactive) | 13.8 µM (inactive) | 3.18 µM (inactive) | – | – | – | –
COc1cc(C[S+]2CCCC2)c(SC)cc1C[S+]1CCCC1 | > 100 µM (inactive) | > 100 µM (inactive) | > 100 µM (inactive) | > 100 µM (inactive) | > 100 µM (inactive) | > 100 µM (inactive) | > 100 µM (inactive) | > 100 µM (inactive) | > 100 µM (inactive) | > 100 µM (inactive) | > 100 µM (inactive) | > 100 µM (inactive) | > 100 µM (inactive) | > 100 µM (inactive) | > 100 µM (inactive) | > 100 µM (inactive) | – | – | – | –
CCN(CC)CCCN1CCc2c([nH]c3ccccc23)C1c1cccnc1 (stereo unspecified) | > 100 µM (inactive) | > 100 µM (inactive) | > 100 µM (inactive) | > 100 µM (inactive) | > 100 µM (inactive) | 29.2 µM (inactive) | > 100 µM (inactive) | > 100 µM (inactive) | > 100 µM (inactive) | 74.1 µM (inactive) | > 100 µM (inactive) | 96.8 µM (inactive) | > 100 µM (inactive) | > 100 µM (inactive) | 42.8 µM (inactive) | 83.9 µM (inactive) | – | – | – | –
COC(=O)C1C2CC3C(OC(=O)C31)C2OC(=O)[C@](OC)(c1ccccc1)C(F)(F)F (stereo partly specified) | > 100 µM (inactive) | > 100 µM (inactive) | > 100 µM (inactive) | > 100 µM (inactive) | > 100 µM (inactive) | > 100 µM (inactive) | > 100 µM (inactive) | > 100 µM (inactive) | > 100 µM (inactive) | > 100 µM (inactive) | > 100 µM (inactive) | > 100 µM (inactive) | > 100 µM (inactive) | > 100 µM (inactive) | > 100 µM (inactive) | > 100 µM (inactive) | – | – | – | –
COC(=O)C(CC1=C(O)Nc2ccccc2N1)/C(=N/NC(N)=O)C(=O)Nc1ccccc1C (stereo unspecified) | > 100 µM (inactive) | > 100 µM (inactive) | 18.2 µM (inactive) | > 100 µM (inactive) | > 100 µM (inactive) | 44 µM (inactive) | > 100 µM (inactive) | 60.1 µM (inactive) | > 100 µM (inactive) | > 100 µM (inactive) | 28.8 µM (inactive) | > 100 µM (inactive) | 21 µM (inactive) | > 100 µM (inactive) | > 100 µM (inactive) | > 100 µM (inactive) | – | – | – | –
O=C(c1ccccc1)c1nc2ccc(Cl)cc2cc1C(Br)Br | 1.79 µM (inactive) | 0.493 µM (active) | 0.108 µM (active) | 0.222 µM (active) | 0.641 µM (active) | 0.527 µM (active) | 0.34 µM (active) | 0.418 µM (active) | 0.678 µM (active) | 1.6 µM (inactive) | 0.281 µM (active) | 0.407 µM (active) | 0.229 µM (active) | 0.605 µM (active) | 0.525 µM (active) | 0.385 µM (active) | 1.03 µM (active) | 0.193 µM (active) | 0.0685 µM (active) | 0.282 µM (active)
O=c1c2c(-c3ccccc3)c3ccccc3nc2cnn1-c1ccccc1 | > 100 µM (inactive) | > 100 µM (inactive) | > 100 µM (inactive) | 29.4 µM (inactive) | > 100 µM (inactive) | > 100 µM (inactive) | 90.6 µM (inactive) | > 100 µM (inactive) | 96.2 µM (inactive) | > 100 µM (inactive) | > 100 µM (inactive) | > 100 µM (inactive) | > 100 µM (inactive) | > 100 µM (inactive) | > 100 µM (inactive) | > 100 µM (inactive) | – | – | – | –
OCCOc1ccc(-c2cc(-c3ccccn3)nc(-c3ccccn3)c2)cc1 | 3.3 µM (inactive) | 0.107 µM (active) | 0.115 µM (active) | 0.0538 µM (active) | 0.106 µM (active) | 0.499 µM (active) | 0.296 µM (active) | 0.0962 µM (active) | 0.0767 µM (active) | 0.309 µM (active) | 0.0849 µM (active) | 0.0731 µM (active) | 0.242 µM (active) | 0.308 µM (active) | 0.481 µM (active) | 0.124 µM (active) | 0.106 µM (active) | 1.37 µM (inactive) | 1.39 µM (inactive) | 0.526 µM (active)
